3 compounds from ChEMBL document CHEMBL1150110, “Three novel protease inhibitors from a natural bloom of the cyanobacterium Microcystis aeruginosa” (J Nat Prod, 2002) can be followed below.

≈ marks a conversion by molar mass, not a printed value. Calls of active or inactive are those of the source. The calls are words filed in the database; no cut-off is given here.

A short description of assay [1]: Inhibition of trypsin at 45.5 ug/mL preincubated for 5 mins before addition of substrate measured after 30 mins.
Assay [2] can be described thus: Inhibition of chymotrypsin at 45.5 ug/mL preincubated for 5 mins before addition of substrate measured after 30 mins.
Assay [3] in a line: Inhibition of trypsin preincubated for 5 mins before addition of substrate measured after 30 mins.

The term inhibition denotes the share of the control response that was lost under treatment. As a reminder, the IC50 is the concentration that inhibits the measured activity by half. Low readings indicate higher potency, high ones lower potency.

In the case of `CC(C)C[C@@H](NC(=O)[C@@H](O)Cc1ccc(O)cc1)C(=O)N1[C@@H]2C[C@H](O)CC[C@@H]2C[C@H]1C(N)=O`, in assay [1], the inhibition stood at 15%.
Take `CC[C@H](C)[C@@H]1NC(=O)[C@H](Cc2ccc(O)cc2)N(C)C(=O)[C@H](Cc2ccccc2)N2C(=O)[C@H](CC[C@H]2O)NC(=O)[C@H](CCCNC(=N)N)NC(=O)[C@@H](NC(=O)[C@H](CC(=O)O)NC(C)=O)[C@@H](C)OC1=O` [MICROPEPTIN E1964]: in assay [2], the outcome was inactive. Also, the IC50 in assay [3] is 4.2 µg/mL (≈ 4.35 µM).
The corresponding values for `CCCC(=O)N[C@@H](CC(=O)O)C(=O)N[C@@H]1C(=O)N[C@@H](CCCNC(=N)N)C(=O)N[C@H]2CC[C@@H](O)N(C2=O)[C@@H](Cc2ccccc2)C(=O)N(C)[C@@H](Cc2ccc(O)cc2)C(=O)N[C@@H]([C@@H](C)CC)C(=O)O[C@@H]1C` [MICROPEPTIN EI992] are “inactive” and 3.8 µg/mL (≈ 3.83 µM).
